Results published in ChEMBL document CHEMBL5537193, “Multitargeting HDAC Inhibitors Containing a RAS/RAF Protein Interfering Unit” (J Med Chem, 2024).
The source made the active and inactive calls. No cut-off for these calls is given here.

Test system: HT-29
Assay: Effect on RAS expression in tumor of BALB/c mouse xenografted with human HT-29 cells at 7.5 to 15 mg/kg, ip administered once every 2 days for 12 times and measured after 24 days by Western blot analysis
Assay type: functional, organism-based
Conditions: Neoplasm, dose 7.5-15 mg/kg, time 24.0 day

## COc1cc(OC)c(/C=C/S(=O)(=O)Cc2ccc(OC)c(NCC(=O)NO)c2)c(OC)c1
  Activity: inactive
